This is an account of results in PMC2957295 (Biochemistry, 2010).

In the experiment the target is T1, Fas (Homo sapiens, UniProt P25445).
T1 sequence (P25445 26-335): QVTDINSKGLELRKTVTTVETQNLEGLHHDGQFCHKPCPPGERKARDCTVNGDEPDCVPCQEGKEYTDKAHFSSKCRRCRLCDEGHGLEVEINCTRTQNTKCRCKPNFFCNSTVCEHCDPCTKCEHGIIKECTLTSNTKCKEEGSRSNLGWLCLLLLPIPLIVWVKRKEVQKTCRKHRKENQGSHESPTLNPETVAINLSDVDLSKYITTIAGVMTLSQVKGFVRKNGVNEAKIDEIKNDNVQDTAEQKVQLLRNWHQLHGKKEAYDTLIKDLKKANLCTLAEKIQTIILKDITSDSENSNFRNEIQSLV
Briefly: anti-Fas immunoprecipitation of treated cells, Western blot for 4-HNE adduct. The note with it: covalent; HepG2 cells, 20 µM 4-HNE, 2 h. It is filed as cell-based. For orientation: Immunoblotting shows a protein as a band on a membrane.

On to `CCCCCC(O)/C=C/C=O` (stereo not shown) [4-hydroxy-2-nonenal], for which the 4-HNE-Fas adduct entry was “shows the presence of Daxx and 4-HNE-Fas adduct”.
